Where two headings read alike, the source gives them in different places.
Key:
[1] = target: rat brain nicotinic receptor (α7 NAChR) (Rattus norvegicus (Rat), UniProt Q05941); format: binding
[2] = Metabolic stability assay in human liver microsomes (HLM); format: in vitro ADME; conditions: 1 μM
Summary of the method: (§1)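 In Protocol 1, compound was 1 μM final with NADPH at 37 °C, sampled at 0–45 min. In Protocol 2, 1.5 μM compound with 0.75 mg/mL microsomes (pre-NADPH mix) in 0.1 M potassium phosphate, 1 mM EDTA, pH 7.4 was pre-incubated 10 min, then NADPH started the reaction. Both: LC-MS/MS % remaining versus time 0, half-life from single-phase exponential fit.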

[3] = Metabolic stability assay in rat liver microsomes (RLM); format: in vitro ADME; conditions: 1 μM
Summary of the method: as §1

CYP3A4 = CYP3A4 (Homo sapiens (Human), UniProt P08684); assay: Cytochrome P450 inhibition in human liver microsomes, CYP3A4
CYP1A2 = CYP1A2 (Homo sapiens (Human), UniProt P05177); assay: Cytochrome P450 inhibition in human liver microsomes, CYP1A2
CYP2C9 = CYP2C9 (Homo sapiens (Human), UniProt P11712); assay: Cytochrome P450 inhibition in human liver microsomes, CYP2C9
CYP2D6 = CYP2D6 (Homo sapiens (Human), UniProt P10635); assay: Cytochrome P450 inhibition in human liver microsomes, CYP2D6
CYP2C19 = CYP2C19 (Homo sapiens (Human), UniProt P33261); assay: Cytochrome P450 inhibition in human liver microsomes, CYP2C19
Human plasma stability = format: in vitro ADME
Summary of the method: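 Protocol 1: 1 μM compound in pH 7.4 sodium-heparin human plasma at 37° C, sampled 0–120 min. Protocol 2: 5 μM in plasma at pH 7.4–8.0, 37° C, duplicates, sampled 0–120 min. Both: LC-MS/MS percent remaining versus t0; half-life from single-phase exponential decay.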

[4] = Protocol No. 2, human liver microsomes
[5] = Protocol No. 2, rat liver microsomes
[6] = read-out: 3A4 IC50 (Midazolam), substrate midazolam, Protocol 2
[7] = read-out: 2C19 IC50, Protocol 2
[8] = Protocol No. 1, human liver microsomes
[9] = Protocol No. 1, rat liver microsomes
[10] = Protocol No. 2, plasma, 5 μM, 37° C.
[11] = read-out: 3A4 IC50 (Midazolam), substrate midazolam, Protocol 1
[12] = read-out: 3A4 IC50 (Testosterone), substrate testosterone, Protocol 1
[13] = read-out: 2C19 IC50, Protocol 1
[14] = pH 7.4, Protocol No. 1, human plasma, 1 μM, 37° C., read-out: T1/2

Sequence of CYP3A4 (P08684 whole entry): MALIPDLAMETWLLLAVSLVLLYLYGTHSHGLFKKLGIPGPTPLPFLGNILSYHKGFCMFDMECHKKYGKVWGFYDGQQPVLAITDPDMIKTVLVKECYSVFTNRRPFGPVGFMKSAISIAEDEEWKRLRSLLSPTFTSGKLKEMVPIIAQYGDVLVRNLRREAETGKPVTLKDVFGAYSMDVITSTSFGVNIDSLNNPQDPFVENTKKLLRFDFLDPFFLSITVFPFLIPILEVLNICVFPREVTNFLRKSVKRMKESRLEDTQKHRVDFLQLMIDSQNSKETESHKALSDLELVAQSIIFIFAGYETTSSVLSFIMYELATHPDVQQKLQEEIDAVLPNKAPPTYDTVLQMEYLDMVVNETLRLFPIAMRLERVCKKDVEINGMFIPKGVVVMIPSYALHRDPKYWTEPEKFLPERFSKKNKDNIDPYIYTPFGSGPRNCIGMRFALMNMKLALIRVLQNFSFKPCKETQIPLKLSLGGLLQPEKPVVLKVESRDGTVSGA
Sequence of CYP1A2 (P05177 whole entry): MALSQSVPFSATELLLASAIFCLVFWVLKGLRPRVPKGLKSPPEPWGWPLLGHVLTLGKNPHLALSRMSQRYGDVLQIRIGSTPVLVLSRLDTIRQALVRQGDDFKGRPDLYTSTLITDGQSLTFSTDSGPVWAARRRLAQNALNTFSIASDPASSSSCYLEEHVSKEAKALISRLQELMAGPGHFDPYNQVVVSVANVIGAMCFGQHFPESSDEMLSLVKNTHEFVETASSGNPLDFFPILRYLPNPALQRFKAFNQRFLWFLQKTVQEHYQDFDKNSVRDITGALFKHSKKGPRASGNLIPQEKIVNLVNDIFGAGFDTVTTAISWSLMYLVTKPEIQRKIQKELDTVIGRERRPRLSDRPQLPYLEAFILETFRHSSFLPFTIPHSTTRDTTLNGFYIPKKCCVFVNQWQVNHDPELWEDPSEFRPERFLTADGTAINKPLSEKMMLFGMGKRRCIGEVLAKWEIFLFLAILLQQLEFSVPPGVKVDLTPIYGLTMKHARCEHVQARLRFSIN
Sequence of rat brain nicotinic receptor (α7 NAChR) (Q05941 23-502 limits assumed): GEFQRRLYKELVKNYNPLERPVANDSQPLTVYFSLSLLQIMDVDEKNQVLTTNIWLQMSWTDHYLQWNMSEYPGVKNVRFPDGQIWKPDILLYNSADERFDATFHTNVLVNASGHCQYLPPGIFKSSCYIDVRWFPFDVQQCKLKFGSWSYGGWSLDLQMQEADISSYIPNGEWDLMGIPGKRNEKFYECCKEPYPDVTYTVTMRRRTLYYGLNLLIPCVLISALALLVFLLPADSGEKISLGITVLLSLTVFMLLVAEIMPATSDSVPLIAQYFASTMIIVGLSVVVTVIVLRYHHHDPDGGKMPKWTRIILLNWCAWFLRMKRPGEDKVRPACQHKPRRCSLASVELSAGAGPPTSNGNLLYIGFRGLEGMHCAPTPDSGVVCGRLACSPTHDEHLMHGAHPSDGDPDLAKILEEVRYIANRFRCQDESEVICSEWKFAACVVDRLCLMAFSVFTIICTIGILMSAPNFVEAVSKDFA
Sequence of CYP2C19 (P33261 whole entry): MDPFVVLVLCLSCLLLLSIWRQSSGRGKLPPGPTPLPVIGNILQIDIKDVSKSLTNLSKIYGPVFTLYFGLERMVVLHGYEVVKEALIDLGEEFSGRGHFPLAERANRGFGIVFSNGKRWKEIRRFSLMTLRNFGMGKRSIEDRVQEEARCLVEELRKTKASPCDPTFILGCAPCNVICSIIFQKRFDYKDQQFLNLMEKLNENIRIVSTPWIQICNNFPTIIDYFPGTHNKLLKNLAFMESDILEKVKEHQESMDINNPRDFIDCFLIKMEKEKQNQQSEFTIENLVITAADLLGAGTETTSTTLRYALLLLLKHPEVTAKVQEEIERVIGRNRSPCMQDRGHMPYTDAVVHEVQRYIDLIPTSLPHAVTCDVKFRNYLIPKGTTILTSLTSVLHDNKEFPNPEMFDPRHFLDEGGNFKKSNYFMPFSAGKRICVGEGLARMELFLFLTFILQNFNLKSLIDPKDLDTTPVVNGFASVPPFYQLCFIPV
Sequence of CYP2D6 (P10635 whole entry): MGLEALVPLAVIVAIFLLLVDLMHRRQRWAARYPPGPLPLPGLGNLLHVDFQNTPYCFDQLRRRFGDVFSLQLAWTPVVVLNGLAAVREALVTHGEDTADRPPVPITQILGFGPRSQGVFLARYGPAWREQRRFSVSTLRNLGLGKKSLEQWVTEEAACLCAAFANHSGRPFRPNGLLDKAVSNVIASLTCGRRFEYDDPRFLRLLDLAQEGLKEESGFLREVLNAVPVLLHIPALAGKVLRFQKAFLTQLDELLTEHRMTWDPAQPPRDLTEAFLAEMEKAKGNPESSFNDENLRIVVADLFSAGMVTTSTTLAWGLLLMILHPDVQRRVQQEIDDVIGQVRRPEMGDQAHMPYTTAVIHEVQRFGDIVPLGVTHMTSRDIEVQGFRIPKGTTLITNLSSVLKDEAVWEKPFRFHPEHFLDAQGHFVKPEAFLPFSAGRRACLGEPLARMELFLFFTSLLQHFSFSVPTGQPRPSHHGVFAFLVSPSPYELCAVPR
Sequence of CYP2C9 (P11712 whole entry): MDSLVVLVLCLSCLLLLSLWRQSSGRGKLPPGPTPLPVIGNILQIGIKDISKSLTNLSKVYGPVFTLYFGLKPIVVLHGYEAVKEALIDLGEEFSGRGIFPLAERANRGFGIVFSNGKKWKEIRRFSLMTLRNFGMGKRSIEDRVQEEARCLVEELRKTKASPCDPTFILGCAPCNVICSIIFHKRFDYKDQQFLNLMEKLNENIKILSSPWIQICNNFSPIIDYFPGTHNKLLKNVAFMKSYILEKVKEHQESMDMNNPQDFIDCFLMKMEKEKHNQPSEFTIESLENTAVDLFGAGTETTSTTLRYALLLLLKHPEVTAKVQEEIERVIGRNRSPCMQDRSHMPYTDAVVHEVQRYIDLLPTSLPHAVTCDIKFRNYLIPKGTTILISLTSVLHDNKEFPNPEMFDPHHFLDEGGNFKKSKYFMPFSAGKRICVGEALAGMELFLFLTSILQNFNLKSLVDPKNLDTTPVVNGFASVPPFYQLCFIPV

SMILES | IC50 [1] | Ki [1] | HLM [2, 4] | RLM [3, 5] | IC50 (CYP3A4; [6]) | IC50 (CYP1A2; read-out: 1A2 IC50, Protocol 2) | IC50 (CYP2C9; read-out: 2C9 IC50, Protocol 2) | IC50 (CYP2D6; read-out: 2D6 IC50, Protocol 2) | IC50 (CYP2C19; [7]) | HLM [2, 8] | RLM [3, 9] | % Remaining @ 2 h (Human plasma stability; [10]) | IC50 (CYP3A4; [11]) | IC50 (CYP3A4; [12]) | IC50 (CYP1A2; read-out: 1A2 IC50, Protocol 1) | IC50 (CYP2C9; read-out: 2C9 IC50, Protocol 1) | IC50 (CYP2D6; read-out: 2D6 IC50, Protocol 1) | IC50 (CYP2C19; [13]) | other results
Cl.O=C(OCC12CCN(CC1)CC2)c1c[nH]c2cc(OC(F)F)ccc12 [Compound 31, Quinuclidin-4-ylmethyl 6-(difluoromethoxy)-1H-indole-3-carboxylate hydrochloride] | 0.788 µM | 0.689 µM | <13.608 mL/min/kg | 25.92 mL/min/kg | > 10 µM | > 10 µM | > 10 µM | > 10 µM | > 10 µM |  |  |  |  |  |  |  |  |  | 
Cl.O=C(OCC12CCN(CC1)CC2)c1c[nH]c2cc(OC(F)(F)F)ccc12 [Compound 29, Quinuclidin-4-ylmethyl 6-(trifluoromethoxy)-1H-indole-3-carboxylate hydrochloride] | 3.71 µM | 3.24 µM | <13.608 mL/min/kg | 25.92 mL/min/kg | > 10 µM | > 10 µM | > 10 µM | > 10 µM | > 10 µM |  |  |  |  |  |  |  |  |  | 
Cc1ccc2c(C(=O)OCC34CCN(CC3)CC4)c[nH]c2c1.Cl [Compound 45, Quinuclidin-4-ylmethyl 6-methyl-1H-indole-3-carboxylate hydrochloride] | 0.0736 µM | 0.0631 µM |  |  |  |  |  |  |  | 2.976 mL/min/kg | 170.981 mL/min/kg | 47.32% | > 10 µM | > 10 µM | > 10 µM | > 10 µM | > 10 µM | > 10 µM | 
Cl.O=C(OCC12CCN(CC1)CC2)c1c[nH]c2cc3c(cc12)OCCO3 [Compound 30, Quinuclidin-4-ylmethyl 2,3-dihydro-6H-[1,4]dioxino[2,3-f]indole-8-carboxylate hydrochloride] | 0.0925 µM | 0.0811 µM | <13.608 mL/min/kg | 55.98 mL/min/kg | > 10 µM | > 10 µM | > 10 µM | > 10 µM | > 10 µM |  |  |  |  |  |  |  |  |  | % Remaining @ 2 h (Human plasma stability; Protocol No. 1, human plasma, 1 μM, 37° C.): 10%; half-life at 1 μM (Human plasma stability; [14]): 0.578 h
O=C(OCC12CCN(CC1)CC2)c1c[nH]c2cc(O)cc(Br)c12 [Compound 53, quinuclidin-4-ylmethyl 4-bromo-6-hydroxy-1H-indole-3-carboxylate] | 0.0536 µM | 0.046 µM |  |  |  |  |  |  |  | 8.304 mL/min/kg | 29.9085 mL/min/kg | 95.5% | > 10 µM | > 10 µM | > 10 µM | > 10 µM | > 10 µM | > 10 µM | 
Cl.O=C(OCC12CCN(CC1)CC2)c1c[nH]c2cc(O)c(F)cc12 [Compound 59, Quinuclidin-4-ylmethyl 5-fluoro-6-hydroxy-1H-indole-3-carboxylate hydrochloride] | 0.0701 µM | 0.0602 µM |  |  |  |  |  |  |  | 0 mL/min/kg | 24.713 mL/min/kg | 53.78% | > 10 µM | > 10 µM | > 10 µM | > 10 µM | > 10 µM | 20.9 µM | 
COc1cc2[nH]cc(C(=O)OCC34CCN(CC3)CC4)c2cc1F.Cl [Compound 32, Quinuclidin-4-ylmethyl 5-fluoro-6-methoxy-1H-indole-3-carboxylate hydrochloride] | 0.306 µM | 0.267 µM | <13.608 mL/min/kg | 85.5 mL/min/kg | > 10 µM | > 10 µM | > 10 µM | > 10 µM | > 10 µM |  |  |  |  |  |  |  |  |  | half-life at 1 μM (Human plasma stability; [14]): > 2 h
O=C(OCC12CCN(CC1)CC2)c1c[nH]c2cc(O)ccc12 [Compound 14, quinuclidin-4-ylmethyl 6-hydroxy-1H-indole-3-carboxylate] | 0.0619 µM | 0.0537 µM |  |  |  | > 10 µM | > 10 µM | > 10 µM | > 10 µM |  |  |  |  |  |  |  |  |  | HLM ([2]; human, microsomes, pH 7.4): <13.608 mL/min/kg; RLM ([3]; rat, microsomes, pH 7.4): 25.92 mL/min/kg; % Remaining @ 2 h (Human plasma stability; human, plasma, 2 h, 1 μM, pH 7.4): 26%; half-life at 1 μM (Human plasma stability; human, plasma, pH 7.4): 1.09 h
